{"source": "patent US10208033B2", "about": "“β-carboline, dihydro-β-carboline and tetrahydro-β-carboline alkaloid derivatives and preparation methods same and use in aspects of preventing and treating plant viruses, fungicides and insecticides” (NANKAI UNIVERSITY, priority 2013, dated 2019)", "key": {"[1]": {"system": "tobacco mosaic virus (TMV)", "assay": "Anti-TMV in vitro effect (half-leaf soaking)", "assay_type": "cell-based, tobacco mosaic virus (host Nicotiana tabacum L.cv.Xanthi NN)"}, "[2]": {"system": "tobacco mosaic virus (TMV)", "assay": "Anti-TMV in vivo inactivation", "parameters": "species or system tobacco mosaic virus (host Nicotiana tabacum L.cv.Xanthi NN)"}, "[3]": {"system": "tobacco mosaic virus (TMV)", "assay": "Anti-TMV in vivo therapeutic effect", "parameters": "species or system tobacco mosaic virus (host Nicotiana tabacum L.cv.Xanthi NN)"}, "[4]": {"system": "tobacco mosaic virus (TMV)", "assay": "Anti-TMV in vivo protective effect", "parameters": "species or system tobacco mosaic virus (host Nicotiana tabacum L.cv.Xanthi NN)"}, "cucumber fusarium wilt": {"system": "cucumber fusarium wilt", "assay": "Fungicidal (bactericidal) activity in vitro, PDA colony diameter", "assay_type": "cell-based", "settings": "50 mg/kg"}, "Cercospora arachidicola": {"system": "Cercospora arachidicola", "assay": "Fungicidal (bactericidal) activity in vitro, PDA colony diameter", "assay_type": "cell-based", "settings": "50 mg/kg"}, "Macrophoma kawatsukai": {"system": "Macrophoma kawatsukai", "assay": "Fungicidal (bactericidal) activity in vitro, PDA colony diameter", "assay_type": "cell-based", "settings": "50 mg/kg"}, "Alternaria solani": {"system": "Alternaria solani", "assay": "Fungicidal (bactericidal) activity in vitro, PDA colony diameter", "assay_type": "cell-based", "settings": "50 mg/kg"}, "Fusarium graminearumt": {"system": "Fusarium graminearumt", "assay": "microbe, parasite or virus in culture", "assay_type": "cell-based"}, "potato late blight": {"system": "potato late blight", "assay": "microbe, parasite or virus in culture", "assay_type": "cell-based"}, "Sclerotinia scleotiorum": {"system": "Sclerotinia scleotiorum", "assay": "Fungicidal (bactericidal) activity in vitro, PDA colony diameter", "assay_type": "cell-based", "settings": "50 mg/kg"}, "Botrytis cinerea": {"system": "Botrytis cinerea", "assay": "Fungicidal (bactericidal) activity in vitro, PDA colony diameter", "assay_type": "cell-based"}, "Rhizoctonia solani": {"system": "Rhizoctonia solani", "assay": "Fungicidal (bactericidal) activity in vitro, PDA colony diameter", "assay_type": "cell-based", "settings": "50 mg/kg"}, "Phytophthora capsici": {"system": "Phytophthora capsici", "assay": "Fungicidal (bactericidal) activity in vitro, PDA colony diameter", "assay_type": "cell-based", "settings": "50 mg/kg"}, "Fusarium fujikuroi": {"system": "Fusarium fujikuroi", "assay": "Fungicidal (bactericidal) activity in vitro, PDA colony diameter", "assay_type": "cell-based", "settings": "50 mg/kg"}, "Rhizoctonia cereali": {"system": "Rhizoctonia cereali", "assay": "Fungicidal (bactericidal) activity in vitro, PDA colony diameter", "assay_type": "cell-based", "settings": "50 mg/kg"}, "Bipolaria maydis": {"system": "Bipolaria maydis", "assay": "organism not typed", "assay_type": "cell-based"}, "[5]": {"system": "Colletotrichum orbiculare", "assay": "Fungicidal (bactericidal) activity in vitro, PDA colony diameter", "assay_type": "cell-based", "settings": "50 mg/kg"}, "armyworms": {"system": "armyworms", "assay_type": "in vivo", "settings": "concentration 600 mg/kg"}, "cotton bollworms": {"system": "cotton bollworms", "assay": "whole plant or invertebrate", "settings": "in vivo", "procedure": "Experimental method of cotton bollworms: feed and drug mixing method: measure 3 mL of prepared solution and add it to about 27 g of newly prepared feed, thereby obtaining needed concentration through dilution by 10 times."}, "corn borers": {"system": "corn borers", "settings": "in vivo"}}, "data": [{"smiles": "O=C(O)[C@@H]1Cc2c([nH]c3ccccc23)[C@H](c2cccnc2)N1", "note": "[Ib-6, (1S, 3S)-1-(pyridine-3)-2,3,4,9-tetrahydropyridino [3,4-b] indol-3-formic acid]", "values": [{"measurement": "Relative inhibition rate (%) In vitro activity", "setting": "[1]; treatment dose 100 μg/mL", "value": 0, "unit": "%"}, {"measurement": "Relative inhibition rate (%) In vitro activity", "setting": "[1]; treatment dose 500 μg/mL", "value": 25, "unit": "%"}, {"measurement": "Relative inhibition rate (%) In vivo inactivation", "setting": "[2]; treatment dose 100 μg/mL", "value": 0, "unit": "%"}, {"measurement": "Relative inhibition rate (%) In vivo inactivation", "setting": "[2]; treatment dose 500 μg/mL", "value": 17.5, "unit": "%"}, {"measurement": "Relative inhibition rate (%) In vivo therapy", "setting": "[3]; treatment dose 100 μg/mL", "value": 0, "unit": "%"}, {"measurement": "Relative inhibition rate (%) In vivo therapy", "setting": "[3]; treatment dose 500 μg/mL", "value": 21.4, "unit": "%"}, {"measurement": "Relative inhibition rate (%) In vivo protection", "setting": "[4]; treatment dose 100 μg/mL", "value": 0, "unit": "%"}, {"measurement": "Relative inhibition rate (%) In vivo protection", "setting": "[4]; treatment dose 500 μg/mL", "value": 24.8, "unit": "%"}, {"measurement": "Bactericidal activity (%) Cucumber fusarium wilt", "setting": "cucumber fusarium wilt", "value": 26.9, "unit": "%"}, {"measurement": "Bactericidal activity (%) Cercospora arachidicola", "setting": "Cercospora arachidicola", "value": 84.6, "unit": "%"}, {"measurement": "Bactericidal activity (%) Macrophoma kawatsukai", "setting": "Macrophoma kawatsukai", "value": 61.9, "unit": "%"}, {"measurement": "Bactericidal activity (%) Alternaria solani", "setting": "Alternaria solani", "value": 26.3, "unit": "%"}, {"measurement": "Bactericidal activity (%) Fusarium graminearumt", "setting": "Fusarium graminearumt; 50 mg/kg", "value": 31.0, "unit": "%"}, {"measurement": "Bactericidal activity (%) potato late blight", "setting": "potato late blight", "value": 27.3, "unit": "%"}, {"measurement": "Bactericidal activity (%) Sclerotinia scleotiorum", "setting": "Sclerotinia scleotiorum", "value": 29.4, "unit": "%"}, {"measurement": "Bactericidal activity (%) Botrytis cinerea", "setting": "Botrytis cinerea", "value": 27.3, "unit": "%"}, {"measurement": "Bactericidal activity (%) Rhizoctonia solani", "setting": "Rhizoctonia solani", "value": 32.9, "unit": "%"}, {"measurement": "Bactericidal activity (%) Phytophthora capsici", "setting": "Phytophthora capsici", "value": 9.4, "unit": "%"}, {"measurement": "Bactericidal activity (%) Fusarium fujikuroi", "setting": "Fusarium fujikuroi", "value": 14.3, "unit": "%"}, {"measurement": "Bactericidal activity (%) Rhizoctonia cereali", "setting": "Rhizoctonia cereali", "value": 63.2, "unit": "%"}, {"measurement": "Bactericidal activity (%) Bipolaria maydis", "setting": "Bipolaria maydis; 50 mg/kg", "value": 36.4, "unit": "%"}, {"measurement": "Bactericidal activity (%) Colletotrichum orbiculare", "setting": "[5]", "value": 32.1, "unit": "%"}, {"measurement": "Armyworm Mortality (%)", "setting": "armyworms", "value": 45, "unit": "%"}, {"measurement": "Cotton bollworm Mortality (%)", "setting": "cotton bollworms", "value": 20, "unit": "%"}, {"measurement": "Corn borer Mortality (%)", "setting": "corn borers", "value": 40, "unit": "%"}]}, {"smiles": "COC(=O)Nc1nc2ccccc2[nH]1", "note": "[Carbendazim]", "values": [{"measurement": "inhibition of growth at 50 mg/kg", "setting": "cucumber fusarium wilt; Fusarium, 96 h", "value": "< 50", "unit": "%"}, {"measurement": "inhibition of growth at 50 mg/kg", "setting": "Cercospora arachidicola; Mycosphaerella arachidis, 96 h", "value": "< 50", "unit": "%"}, {"measurement": "inhibition at 50 mg/kg", "setting": "Macrophoma kawatsukai", "value": "< 50", "unit": "%"}, {"measurement": "inhibition of growth at 50 mg/kg", "setting": "Alternaria solani; Alternaria solani, 96 h", "value": "< 50", "unit": "%"}, {"measurement": "inhibition of growth at 50 mg/kg", "setting": "Fusarium graminearumt; Fusarium, 96 h, read-out: Bactericidal activity (%) Fusarium graminearumt", "value": 100, "unit": "%"}, {"measurement": "inhibition of growth at 50 mg/kg", "setting": "potato late blight; Phytophthora infestans, 96 h, read-out: Bactericidal activity (%) potato late blight", "value": 100, "unit": "%"}, {"measurement": "inhibition of growth at 50 mg/kg", "setting": "Sclerotinia scleotiorum; Sclerotinia, 96 h", "value": 100, "unit": "%"}, {"measurement": "inhibition of growth at 50 mg/kg", "setting": "Botrytis cinerea; Botrytis cinerea, 96 h, 50 mg/kg", "value": "< 50", "unit": "%"}, {"measurement": "inhibition of growth at 50 mg/kg", "setting": "Rhizoctonia solani; Rhizoctonia solani, 96 h", "value": 100, "unit": "%"}, {"measurement": "inhibition of growth at 50 mg/kg", "setting": "Phytophthora capsici; Phytophthora capsici, 96 h", "value": "< 50", "unit": "%"}, {"measurement": "inhibition of growth at 50 mg/kg", "setting": "Fusarium fujikuroi; Fusarium fujikuroi, 96 h", "value": "< 50", "unit": "%"}, {"measurement": "inhibition of growth at 50 mg/kg", "setting": "Rhizoctonia cereali; Rhizoctonia, 96 h", "value": 100, "unit": "%"}, {"measurement": "inhibition at 50 mg/kg", "setting": "Bipolaria maydis; read-out: Bactericidal activity (%) Bipolaria maydis", "value": 100, "unit": "%"}, {"measurement": "inhibition of growth at 50 mg/kg", "setting": "[5]; Colletotrichum orbiculare, 96 h", "value": 100, "unit": "%"}]}, {"smiles": "NC(=O)c1ncn([C@@H]2O[C@H](CO)[C@@H](O)[C@H]2O)n1", "note": "[Virazole, reference compound]", "values": [{"measurement": "inhibition at 100 µg/mL", "setting": "[1]; Tobacco mosaic virus, treatment dose 100 μg/mL, read-out: Relative inhibition rate (%) In vitro activity", "value": 15.3, "unit": "%"}, {"measurement": "inhibition at 500 µg/mL", "setting": "[1]; Tobacco mosaic virus, treatment dose 500 μg/mL, read-out: Relative inhibition rate (%) In vitro activity", "value": 39.5, "unit": "%"}, {"measurement": "inhibition at 100 µg/mL", "setting": "[2]; Tobacco mosaic virus, treatment dose 100 μg/mL, read-out: Relative inhibition rate (%) In vivo inactivation", "value": 12.9, "unit": "%"}, {"measurement": "inhibition at 500 µg/mL", "setting": "[2]; Tobacco mosaic virus, treatment dose 500 μg/mL, read-out: Relative inhibition rate (%) In vivo inactivation", "value": 36.3, "unit": "%"}, {"measurement": "inhibition at 100 µg/mL", "setting": "[3]; Tobacco mosaic virus, treatment dose 100 μg/mL, read-out: Relative inhibition rate (%) In vivo therapy", "value": 11.9, "unit": "%"}, {"measurement": "inhibition at 500 µg/mL", "setting": "[3]; Tobacco mosaic virus, treatment dose 500 μg/mL, read-out: Relative inhibition rate (%) In vivo therapy", "value": 35.4, "unit": "%"}, {"measurement": "inhibition at 100 µg/mL", "setting": "[4]; Tobacco mosaic virus, treatment dose 100 μg/mL, read-out: Relative inhibition rate (%) In vivo protection", "value": 16.2, "unit": "%"}, {"measurement": "inhibition at 500 µg/mL", "setting": "[4]; Tobacco mosaic virus, treatment dose 500 μg/mL, read-out: Relative inhibition rate (%) In vivo protection", "value": 37.6, "unit": "%"}]}, {"smiles": "COc1cc2c3c(c4cc(OC)c(OC)cc4c2cc1OC)CN1CCC[C@H]1C3.O=C(O)C[C@@H](O)C(=O)O", "note": "[NK-007, reference compound]", "values": [{"measurement": "Relative inhibition rate (%) In vitro activity", "setting": "[1]; treatment dose 100 μg/mL", "value": 38.7, "unit": "%"}, {"measurement": "Relative inhibition rate (%) In vitro activity", "setting": "[1]; treatment dose 500 μg/mL", "value": 65.4, "unit": "%"}, {"measurement": "Relative inhibition rate (%) In vivo inactivation", "setting": "[2]; treatment dose 100 μg/mL", "value": 33.9, "unit": "%"}, {"measurement": "Relative inhibition rate (%) In vivo inactivation", "setting": "[2]; treatment dose 500 μg/mL", "value": 65.2, "unit": "%"}, {"measurement": "Relative inhibition rate (%) In vivo therapy", "setting": "[3]; treatment dose 100 μg/mL", "value": 34.9, "unit": "%"}, {"measurement": "Relative inhibition rate (%) In vivo therapy", "setting": "[3]; treatment dose 500 μg/mL", "value": 67.2, "unit": "%"}, {"measurement": "Relative inhibition rate (%) In vivo protection", "setting": "[4]; treatment dose 100 μg/mL", "value": 36.2, "unit": "%"}, {"measurement": "Relative inhibition rate (%) In vivo protection", "setting": "[4]; treatment dose 500 μg/mL", "value": 67.9, "unit": "%"}]}]}
